These results are taken from ChEMBL document CHEMBL1201862, “PubChem BioAssay data set” (2004).

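How tested: cells in 96-well plates exposed to compound for 48 hours at five concentrations. Abbreviation: GI50, concentration required for 50% inhibition of growth.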 Activity calls are given as the source filed them. No stated cut-off is given here; in the data, active = GI50 up to about 1.1 µM and inactive = higher.

Test systems include A498; BT-549; CCRF-CEM; COLO 205; HCT-15; HOP-62; HOP-92; HT-29; IGROV-1; K562; KM12; M14; MOLT-4; OVCAR-4; OVCAR-8; RXF 393; SK-MEL-28; SK-MEL-2; SNB-19; UACC-257.
Assay in all cases: NCI tumour cell line growth inhibition, 48 h

With `O=S(=O)(O)c1cc(Cl)c(O)c2ncc(Cl)cc12`, the GI50 in the assay on A498 was > 100 µM (inactive); in the assay on BT-549, 79.4 µM (inactive); in the assay on CCRF-CEM, 24.6 µM (inactive); in the assay on COLO 205, > 100 µM (inactive); with HCT-15, 41.7 µM; in the assay on HOP-62, > 100 µM (inactive). Moreover, the GI50 in the assay with HOP-92 was 87.1 µM (inactive); in the assay on HT-29, 38.5 µM (inactive); with IGROV-1, 35.4 µM (inactive); with K562, 41.6 µM (inactive); in the assay with KM12, > 100 µM (inactive); with M14, 90.8 µM (inactive). Also, the GI50 with MOLT-4 is 15.7 µM (inactive); in the assay on OVCAR-4, 42.7 µM (inactive); in the assay on OVCAR-8, 37.5 µM (inactive); in the assay with RXF 393 it was > 100 µM (inactive); in the assay on SK-MEL-28, > 100 µM (inactive); in the assay on SK-MEL-2 it was > 100 µM (inactive). Further, the GI50 is 84.7 µM (inactive) with SNB-19 and > 100 µM (inactive) in the assay with UACC-257.
In the case of `CSc1ncc2c(C#N)c3ccccn3c(=O)c2n1`, the GI50 is > 100 µM (inactive) in the assay with A498; > 100 µM (inactive) in the assay with BT-549; > 100 µM (inactive) in the assay with CCRF-CEM; > 100 µM (inactive) in the assay with COLO 205; more than 100 µM in the assay on HCT-15; > 100 µM (inactive) in the assay with HOP-62. Also, the GI50 in the assay on HOP-92, in the assay on HT-29, in the assay on IGROV-1, with K562, in the assay on KM12 and with M14 was > 100 µM (inactive) each time. In addition, the GI50 in the assay on MOLT-4, with OVCAR-4, in the assay with OVCAR-8, with RXF 393, in the assay with SK-MEL-28 and in the assay with SK-MEL-2 was > 100 µM (inactive) each time. The GI50 in the assay on SNB-19 and in the assay on UACC-257 was > 100 µM (inactive) in each case.
Take `CCOC(=O)C1C(O)CC2c3ccccc3-c3ccccc3C21` (stereo unspecified): the GI50 in the assay on A498 is 20.2 µM (inactive); in the assay on BT-549, > 100 µM (inactive); with CCRF-CEM, 8.85 µM (inactive); with COLO 205 it was > 100 µM (inactive); in the assay on HCT-15, more than 100 µM; in the assay on HOP-62 it was 31.2 µM (inactive). Besides, the GI50 was 20.1 µM (inactive) in the assay on HOP-92; 68.1 µM (inactive) in the assay with HT-29; 47.1 µM (inactive) with IGROV-1; 96.2 µM (inactive) in the assay on K562; 36.1 µM (inactive) in the assay on KM12; > 100 µM (inactive) in the assay on M14. Besides, the GI50 was > 100 µM (inactive) in the assay on MOLT-4; > 100 µM (inactive) with OVCAR-4; 21.5 µM (inactive) with OVCAR-8; 29.3 µM (inactive) in the assay on RXF 393; > 100 µM (inactive) in the assay on SK-MEL-28; > 100 µM (inactive) with SK-MEL-2. The GI50 is 33.5 µM (inactive) with SNB-19 and > 100 µM (inactive) in the assay with UACC-257.
As for `N=NCC(=O)OC(COCc1ccccc1)COCc1ccccc1`, the GI50 is > 100 µM (inactive) with A498; > 100 µM (inactive) in the assay on BT-549; 57.8 µM (inactive) in the assay with CCRF-CEM; 96.4 µM (inactive) in the assay with COLO 205; more than 100 µM with HCT-15; > 100 µM (inactive) with HOP-62. The GI50 is 10.2 µM (inactive) in the assay with HOP-92; > 100 µM (inactive) with HT-29; > 100 µM (inactive) in the assay on IGROV-1; 47 µM (inactive) with K562; 31.4 µM (inactive) with KM12; 39.7 µM (inactive) in the assay on MOLT-4. The GI50 in the assay with OVCAR-4 was 69.7 µM (inactive); in the assay on RXF 393 it was > 100 µM (inactive); in the assay on SK-MEL-28 it was > 100 µM (inactive); in the assay on SK-MEL-2, > 100 µM (inactive); with SNB-19, > 100 µM (inactive); with UACC-257, > 100 µM (inactive).
Turning to `O=c1c2ccccc2sc2ccccc12`, the GI50 with A498 is > 100 µM (inactive); in the assay with BT-549 it was > 100 µM (inactive); with CCRF-CEM, > 100 µM (inactive); with COLO 205 it was > 100 µM (inactive); with HCT-15, more than 100 µM; with HOP-62, > 100 µM (inactive). Besides, the GI50 in the assay with HOP-92, in the assay on HT-29, in the assay on IGROV-1, in the assay on K562, in the assay with KM12 and with M14 was > 100 µM (inactive) each time. In addition, the GI50 with MOLT-4, with OVCAR-4, with OVCAR-8, in the assay on RXF 393, in the assay with SK-MEL-28 and with SK-MEL-2 was > 100 µM (inactive) each time. The GI50 in the assay on SNB-19 and in the assay on UACC-257 was > 100 µM (inactive) each time.
On to `Cc1cc(C)n(CN(Cn2nc(C)cc2C)c2ccccc2)n1`, for which the GI50 with A498 is > 100 µM (inactive); with BT-549 it was 21.8 µM (inactive); with CCRF-CEM, 23.3 µM (inactive); with COLO 205, 14.3 µM (inactive); in the assay on HCT-15, 19.6 µM; in the assay on HOP-62, 23.7 µM (inactive). Moreover, the GI50 in the assay with HOP-92 was 33.5 µM (inactive); in the assay on HT-29, 17.6 µM (inactive); in the assay with IGROV-1 it was 25.5 µM (inactive); in the assay with K562, 15.6 µM (inactive); in the assay on KM12, 16 µM (inactive); with M14, 16.3 µM (inactive). The GI50 in the assay on MOLT-4 was 10.5 µM (inactive); in the assay on OVCAR-4 it was 20.3 µM (inactive); with OVCAR-8, 20.9 µM (inactive); in the assay on RXF 393 it was 19.3 µM (inactive); with SK-MEL-28 it was 19.6 µM (inactive); in the assay with SK-MEL-2, 19 µM (inactive). For the same compound, the GI50 was 45.5 µM (inactive) in the assay on SNB-19 and 22.3 µM (inactive) with UACC-257.
Consider `OCC1OC(n2cnc3c2NC=NC[C@H]3O)CC1O` (stereo partly specified), for which the GI50 in the assay on A498 is 422 µM (inactive); with BT-549, > 500 µM (inactive); in the assay on CCRF-CEM, 392 µM (inactive); in the assay on COLO 205, 472 µM (inactive); in the assay with HCT-15, more than 500 µM; in the assay on HOP-62 it was 417 µM (inactive). The GI50 in the assay on HOP-92 is 398 µM (inactive); in the assay on IGROV-1, 450 µM (inactive); in the assay with K562 it was 469 µM (inactive); with KM12, 495 µM (inactive); in the assay with M14, 418 µM (inactive); with MOLT-4, 418 µM (inactive). For the same compound, the GI50 with OVCAR-4 is 470 µM (inactive); in the assay on OVCAR-8, 489 µM (inactive); in the assay with RXF 393, 484 µM (inactive); with SK-MEL-28, 493 µM (inactive); with SK-MEL-2 it was 497 µM (inactive); in the assay on SNB-19, 479 µM (inactive). For the same compound, in the assay on UACC-257, the GI50 was 407 µM (inactive).
As for `CC1OC(O[C@H]2CC[C@]3(C)[C@H]4CC=C5[C@@H]6[C@@H](C)[C@H](C)CC[C@]6(C(=O)O)CC[C@@]5(C(=O)O)[C@]4(C)CC[C@H]3C2(C)C)C(O)C(O)C1O` (stereo partly specified), the GI50 is > 75 µM (inactive) in the assay on A498; > 75 µM (inactive) with BT-549; 28.8 µM (inactive) in the assay on CCRF-CEM; > 75 µM (inactive) in the assay with COLO 205; more than 75 µM with HCT-15; > 75 µM (inactive) with HOP-62. The GI50 with HOP-92 is 38.3 µM (inactive); in the assay on K562, > 75 µM (inactive); in the assay with KM12 it was > 75 µM (inactive); in the assay with M14 it was > 75 µM (inactive); in the assay on MOLT-4 it was > 75 µM (inactive); in the assay with OVCAR-4 it was > 75 µM (inactive). Also, the GI50 in the assay with OVCAR-8, with RXF 393, in the assay with SK-MEL-2, with SNB-19 and with UACC-257 was > 75 µM (inactive) each time.
For `CC(C)(C)c1cc(C2NCCO2)cc(C(C)(C)C)c1O` (stereo unspecified), the GI50 is > 100 µM (inactive) in the assay with A498; > 100 µM (inactive) in the assay with BT-549; > 100 µM (inactive) with CCRF-CEM; > 100 µM (inactive) in the assay with COLO 205; 57 µM in the assay on HCT-15; 30.1 µM (inactive) with HOP-62. The GI50 with HOP-92 is 74.6 µM (inactive); in the assay on HT-29 it was > 100 µM (inactive); with IGROV-1, 96.6 µM (inactive); with K562, > 100 µM (inactive); with KM12, > 100 µM (inactive); in the assay on MOLT-4 it was > 100 µM (inactive). For the same compound, the GI50 in the assay on OVCAR-4 is > 100 µM (inactive); in the assay on OVCAR-8, 77.3 µM (inactive); with RXF 393 it was 14.7 µM (inactive); in the assay with SK-MEL-28, > 100 µM (inactive); with SK-MEL-2, 35.2 µM (inactive); in the assay on UACC-257, > 100 µM (inactive).
For the compound `O=C1C2CC=CCC2C(=O)N1n1c(Cc2ccccc2)n[nH]c1=O` (stereo unspecified), the GI50 in the assay with A498 is > 100 µM (inactive); in the assay with BT-549, > 100 µM (inactive); in the assay with CCRF-CEM, > 100 µM (inactive); in the assay with COLO 205 it was > 100 µM (inactive); in the assay on HCT-15 it was more than 100 µM; with HOP-62 it was > 100 µM (inactive). For the same compound, the GI50 in the assay on HOP-92, in the assay with HT-29, in the assay with IGROV-1, in the assay on K562, in the assay on KM12 and in the assay with M14 was > 100 µM (inactive) in each case. Also, the GI50 in the assay with MOLT-4, with OVCAR-4, in the assay on OVCAR-8, in the assay with RXF 393, in the assay with SK-MEL-2 and in the assay on SNB-19 was > 100 µM (inactive) in each case. Further, the GI50 in the assay on UACC-257 is > 100 µM (inactive).
